Measurements taken from patent publication US20240150293A1, “SPIROCYCLOHEXANE DERIVATIVES, PHARMACEUTICAL COMPOSITIONS CONTAINING THEM AND THEIR USES AS ANTI-APOPTOTIC INHIBITORS” (LES LABORATOIRES SERVIER, priority 2021, published 2024).

molecular target: Mcl-1 protein (UniProtKB Q07820) (Homo sapiens (Human), UniProt Q07820); assay: Inhibition of Mcl-1 by the fluorescence polarisation assay (Example A, Method A); assay type: binding; conditions: fluorescence polarization assay
In short: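 Protein (5 nM) and fluorescein-tagged peptide tracer (1 nM) incubated with 11-point compound series for 2 h at room temperature in HEPES/NaCl/Tween 20 buffer, pH 7.4, 5% DMSO. Displacement read as decrease in polarisation; IC50 fitted by 4-parameter logistic, converted to Ki (cKi or eKi).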

Sequence of Mcl-1 protein (Q07820 whole entry): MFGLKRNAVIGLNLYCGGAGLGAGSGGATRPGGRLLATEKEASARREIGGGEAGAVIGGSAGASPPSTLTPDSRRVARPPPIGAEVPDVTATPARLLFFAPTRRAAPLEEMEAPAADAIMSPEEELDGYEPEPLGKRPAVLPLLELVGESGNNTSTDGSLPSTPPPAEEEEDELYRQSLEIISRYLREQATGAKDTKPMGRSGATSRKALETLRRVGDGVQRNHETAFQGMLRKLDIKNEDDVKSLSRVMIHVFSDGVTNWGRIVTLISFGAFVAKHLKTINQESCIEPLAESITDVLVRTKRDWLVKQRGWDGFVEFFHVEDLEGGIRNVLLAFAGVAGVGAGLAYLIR

| Ki [nM] | Structure (SMILES) |
| --- | --- |
| 201 | O=C(O)[C@]1(Nc2cccc(Cl)c2)CC[C@@]2(CC1)c1ccccc1CC2c1cccc(OCc2cccnc2)c1 (single isomer, unassigned) [Example 372, (1r,4r)-4-(3-chloroanilino)-2′-{3-[(pyridin-3-yl)methoxy]phenyl}-2′,3′-dihydrospiro[cyclohexane-1,1′-indene]-4-carboxylic acid] |
| 224 | O=C(O)[C@]1(Nc2cccc(Cl)c2)CC[C@@]2(CC1)c1ccccc1CC2CCCOc1ccccc1 (stereo partly shown) [Example 423, (1r,4r)-4-(3-chloroanilino)-2′-(3-phenoxypropyl)-2′,3′-dihydrospiro[cyclohexane-1,1′-indene]-4-carboxylic acid] |
| 793 | COc1ccc(CCOCC2=Cc3ccccc3[C@]23CC[C@@](Nc2cccc(Cl)c2)(C(=O)O)CC3)cc1 [Example 421, (1s,4s)-4-(3-chloroanilino)-2′-{[2-(4-methoxyphenyl)ethoxy]methyl}spiro[cyclohexane-1,1′-indene]-4-carboxylic acid] |
| 1340 | COc1ccc(C2=Cc3ccccc3[C@]23CC[C@@](Nc2cccc(Cl)c2)(C(=O)O)CC3)c(C)c1 [Example 229, (1s,4s)-4-(3-chloroanilino)-2′-(4-methoxy-2-methylphenyl)spiro[cyclohexane-1,1′-indene]-4-carboxylic acid] |
| 10100 | O=C(O)[C@]1(Nc2cccc(Cl)c2)CC[C@]2(CC1)C(C1=CCCCC1)=Cc1ccccc12 [Example 275, (1r,4r)-4-(3-chloroanilino)-2′-(cyclohex-1-en-1-yl)spiro[cyclohexane-1,1′-indene]-4-carboxylic acid] |
| 191000 | O=C(O)C1(Nc2cccc(Cl)c2)CCC2(C=Cc3cccnc32)CC1 (single isomer, unassigned) [Example 72, 4-(3-chloroanilino)spiro[cyclohexane-1,7′-cyclopenta[b]pyridine]-4-carboxylic acid] |
| 5730 | O=C(O)[C@]1(Nc2cccc(Cl)c2)CC[C@@]2(CC1)c1ccccc1[C@@H]1C[C@@H]12 (single isomer, unassigned) [Example 108, (1r,1′aR*,4r,6′aS*)-4-(3-chloroanilino)-1′a,6′a-dihydro-1′H-spiro[cyclohexane-1,6′-cyclopropa[a]indene]-4-carboxylic acid] |
| 104 | Cc1cncnc1OCCCC1=Cc2ccccc2[C@]12CC[C@@](Nc1cccc(Br)c1)(C(=O)O)CC2 [Example 456, (1r,4r)-4-(3-bromoanilino)-2′-{3-[(5-methylpyrimidin-4-yl)oxy]propyl}spiro[cyclohexane-1,1′-indene]-4-carboxylic acid] |
| 134 | Cc1cc2nccc(OCCCC3Cc4ccccc4[C@]34CC[C@@](Nc3cccc(Cl)c3)(C(=O)O)CC4)c2s1 (stereo partly shown) [Example 446, (1r,4r)-4-(3-chloroanilino)-2′-{3-[(2-methylthieno[3,2-b]pyridin-7-yl)oxy]propyl}-2′,3′-dihydrospiro[cyclohexane-1,1′-indene]-4-carboxylic acid] |
| 1430 | O=C(O)[C@]1(Nc2cccc(Cl)c2)CC[C@@]2(CC1)c1ccccc1CC2C1CCCC1 (single isomer, unassigned) [Example 91, (1r,4r)-4-(3-chloroanilino)-2′-cyclopentyl-2′,3′-dihydrospiro[cyclohexane-1,1′-indene]-4-carboxylic acid] |
| 60500 | CN(c1cccc(Cl)c1)[C@]1(C(=O)O)CC[C@]2(C=Cc3ccccc32)CC1 [Example 73, (1r,4r)-4-[(3-chlorophenyl)(methyl)amino]spiro[cyclohexane-1,1′-indene]-4-carboxylic acid] |
| 22300 | COc1ccc(C2=Cc3ccccc3[C@]23CC[C@](Nc2cccc(Cl)c2)(C(=O)O)CC3)cc1C [Example 224, (1r,4r)-4-(3-chloroanilino)-2′-(4-methoxy-3-methylphenyl)spiro[cyclohexane-1,1′-indene]-4-carboxylic acid] |
| 836 | O=C(O)[C@]1(Nc2cccc(Br)c2)CC[C@@]2(CCCc3ccccc32)CC1 [Example 119, (1r,4s)-4-(3-bromoanilino)-3′,4′-dihydro-2′H-spiro[cyclohexane-1,1′-naphthalene]-4-carboxylic acid] |
| 942 | O=C(O)[C@]1(Nc2cccc(Cl)c2)CC[C@]2(CC1)C(c1ccc(-c3ccccc3)o1)=Cc1ccccc12 [Example 317, (1s,4s)-4-(3-chloroanilino)-2′-(5-phenylfuran-2-yl)spiro[cyclohexane-1,1′-indene]-4-carboxylic acid] |
| 35000 | O=C(O)[C@]1(Nc2cccc(Br)c2)CC[C@@]2(CC1)C(c1ccccc1)=Cc1ccccc12 [Example 209, (1r,4r)-4-(3-bromoanilino)-2′-phenylspiro[cyclohexane-1,1′-indene]-4-carboxylic acid] |
| 704 | O=C(O)[C@]1(Nc2cccc(Cl)c2)CC[C@]2(CC1)C(COCCc1ccc(F)cc1)=Cc1ccccc12 [Example 413, (1s,4s)-4-(3-chloroanilino)-2′-{[2-(4-fluorophenyl)ethoxy]methyl}spiro[cyclohexane-1,1′-indene]-4-carboxylic acid] |

| Ki [nM] | Structure (SMILES) |
| --- | --- |
| 10600 | COc1cc(Cl)cc(C2Cc3ccccc3[C@]23CC[C@@](Nc2cccc(Cl)c2)(C(=O)O)CC3)c1 (single isomer, unassigned) [Example 348, (1r,4r)-4-(3-chloroanilino)-2′-(3-chloro-5-methoxyphenyl)-2′,3′-dihydrospiro[cyclohexane-1,1′-indene]-4-carboxylic acid] |
| 2120 | COc1ccc2c(c1)[C@]1(CC[C@@](Nc3cccc(Cl)c3)(C(=O)O)CC1)C1(CCCC1)C2 [Example 89, (1r,4r)-4-(3-chloroanilino)-6′-methoxy-3′H-dispiro[cyclohexane-1,1′-indene-2′,1″-cyclopentane]-4-carboxylic acid] |
| 4500 | O=C(O)[C@]1(Nc2cccc(Cl)c2)CC[C@]2(CC1)C(C1CCC1)=Cc1ccccc12 [Example 96, (1r,4r)-4-(3-chloroanilino)-2′-cyclobutylspiro[cyclohexane-1,1′-indene]-4-carboxylic acid] |
| 4960 | O=C(O)[C@]1(Nc2cccc(Cl)c2)CC[C@@]2(CC1)c1ccccc1CC2c1coc2ccccc12 (single isomer, unassigned) [Example 285, (1r,4r)-2′-(1-benzofuran-3-yl)-4-(3-chloroanilino)-2′,3′-dihydrospiro[cyclohexane-1,1′-indene]-4-carboxylic acid] |
| 63300 | O=C(O)[C@]1(Nc2cccc(Br)c2)CC[C@@]2(CC1)C(CCCc1ccccc1)=Cc1ccccc12 [Example 149, (1s,4s)-4-(3-bromoanilino)-2′-(3-phenylpropyl)spiro[cyclohexane-1,1′-indene]-4-carboxylic acid] |
| 295 | Cc1cnccc1OCCCN1Cc2ccccc2[C@]12CC[C@@](Nc1cccc(Cl)c1)(C(=O)O)CC2 [Example 37, (1s,4s)-4-(3-chloroanilino)-2′-{3-[(3-methylpyridin-4-yl)oxy]propyl}-2′,3′-dihydrospiro[cyclohexane-1,1′-isoindole]-4-carboxylic acid] |
| 240 | O=C(O)[C@]1(Nc2cccc(Br)c2)CC[C@@]2(CCc3ccc(O)cc32)CC1 [Example 63, (1r,4s)-4-(3-bromoanilino)-6′-hydroxy-2′,3′-dihydrospiro[cyclohexane-1,1′-indene]-4-carboxylic acid] |
| 1910 | O=C(O)[C@]1(Nc2cccc(Cl)c2)CC[C@@]2(CC1)c1ccccc1CC2c1ccc(OCc2ccncc2)cc1 (single isomer, unassigned) [Example 369, (1r,4r)-4-(3-chloroanilino)-2′-{4-[(pyridin-4-yl)methoxy]phenyl}-2′,3′-dihydrospiro[cyclohexane-1,1′-indene]-4-carboxylic acid] |
| 531 | Cc1cnccc1OCCCOC1=Cc2ccccc2[C@]12CC[C@@](Nc1cccc(Br)c1)(C(=O)O)CC2 [Example 193, (1s,4s)-4-(3-bromoanilino)-2′-{3-[(3-methylpyridin-4-yl)oxy]propoxy}spiro[cyclohexane-1,1′-indene]-4-carboxylic acid] |
| 318 | Cc1n[nH]c2cccc(OCCCC3Cc4ccccc4[C@]34CC[C@@](Nc3cccc(Cl)c3)(C(=O)O)CC4)c12 (mixture of isomers) [Example 453, (1r,4r)-4-(3-chloroanilino)-2′-{3-[(3-methyl-1H-indazol-4-yl)oxy]propyl}-2′,3′-dihydrospiro[cyclohexane-1,1′-indene]-4-carboxylic acid] |
| 643 | O=C(O)[C@]1(Nc2cccc(Cl)c2)CC[C@@]2(CC1)c1ccccc1CC2c1cccc2c1OCC2 (single isomer, unassigned) [Example 295, (1r,4r)-4-(3-chloroanilino)-2′-(2,3-dihydro-1-benzofuran-7-yl)-2′,3′-dihydrospiro[cyclohexane-1,1′-indene]-4-carboxylic acid] |
| 221 | O=C(O)[C@]1(Nc2cccc(Cl)c2)CC[C@@]2(CC1)c1ccccc1CC2c1cccc(OCc2ccncc2)c1 (single isomer, unassigned) [Example 373, (1r,4r)-4-(3-chloroanilino)-2′-{3-[(pyridin-4-yl)methoxy]phenyl}-2′,3′-dihydrospiro[cyclohexane-1,1′-indene]-4-carboxylic acid] |
| 11500 | CN1c2ccc(C3CC3)cc2[C@]2(CC[C@](Nc3cccc(Br)c3)(C(=O)O)CC2)C1=O [Example 15, (1r,4r)-4-(3-bromoanilino)-5′-cyclopropyl-1′-methyl-2′-oxo-1′,2′-dihydrospiro[cyclohexane-1,3′-indole]-4-carboxylic acid] |
| 4270 | CN(CCc1ccccc1)C(=O)C1Cc2ccccc2[C@]12CC[C@@](Nc1cccc(Cl)c1)(C(=O)O)CC2 (single isomer, unassigned) [Example 408, (1r,4r)-4-(3-chloroanilino)-2′-[methyl(2-phenylethyl)carbamoyl]-2′,3′-dihydrospiro[cyclohexane-1,1′-indene]-4-carboxylic acid] |
| 578 | Cc1cc(C2Cc3ccccc3C23CCC(Nc2cccc(Br)c2)(C(=O)O)CC3)cs1 (stereo not shown) [Example 232, 4-(3-bromoanilino)-2′-(5-methylthiophen-3-yl)-2′,3′-dihydrospiro[cyclohexane-1,1′-indene]-4-carboxylic acid] |
